Measurements: PubChem BioAssay (NCI)
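Growth conditions: 96-well plates. Treatment: test compound, 48 hours, 5 concentrations. Analysis: linear interpolation between bracketing concentrations; unreached endpoints set to highest concentration. At the TGI there is no net growth.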

Legend:
Assay in all cases: growth of human tumour cells (NCI), 48 h
CAKI-1 renal = test system: CAKI-1 renal
SF-539 CNS = test system: SF-539 CNS
SK-MEL-28 melanoma = test system: SK-MEL-28 melanoma
SW-620 colon = test system: SW-620 colon
HOP-92 NSCLC = test system: HOP-92 NSCLC
SK-MEL-2 melanoma = test system: SK-MEL-2 melanoma
SR leukemia = test system: SR leukemia
OVCAR-5 ovarian = test system: OVCAR-5 ovarian
IGROV1 ovarian = test system: IGROV1 ovarian
SK-OV-3 ovarian = test system: SK-OV-3 ovarian
DMS 273 small cell lung = test system: DMS 273 small cell lung
RPMI-8226 leukemia = test system: RPMI-8226 leukemia
SF-268 CNS = test system: SF-268 CNS
KM12 colon = test system: KM12 colon
OVCAR-8 ovarian = test system: OVCAR-8 ovarian
M14 melanoma = test system: M14 melanoma
NCI-H522 lung = test system: NCI-H522 lung
A498 renal = test system: A498 renal
M19-MEL melanoma = test system: M19-MEL melanoma
MOLT-4 leukemia = test system: MOLT-4 leukemia
KM20L2 colon = test system: KM20L2 colon
MALME-3M melanoma = test system: MALME-3M melanoma
SN12C renal = test system: SN12C renal
HCT-116 colon = test system: HCT-116 colon
LXFL 529 NSCLC = test system: LXFL 529 NSCLC
RXF-631 renal = test system: RXF-631 renal
HT29 colon = test system: HT29 colon
U251 CNS = test system: U251 CNS
XF 498 CNS = test system: XF 498 CNS
OVCAR-3 ovarian = test system: OVCAR-3 ovarian
A549 NSCLC = test system: A549 NSCLC
EKVX NSCLC = test system: EKVX NSCLC
HCT-15 colon = test system: HCT-15 colon
SF-295 CNS = test system: SF-295 CNS
SNB-75 CNS = test system: SNB-75 CNS
SK-MEL-5 melanoma = test system: SK-MEL-5 melanoma
SNB-78 CNS = test system: SNB-78 CNS
HOP-18 NSCLC = test system: HOP-18 NSCLC
SNB-19 CNS = test system: SNB-19 CNS
HOP-62 NSCLC = test system: HOP-62 NSCLC
COLO 205 colon = test system: COLO 205 colon
UO-31 renal = test system: UO-31 renal
HCC-2998 colon = test system: HCC-2998 colon
DMS 114 small cell lung = test system: DMS 114 small cell lung
ACHN renal = test system: ACHN renal
NCI-H23 lung = test system: NCI-H23 lung
UACC-62 melanoma = test system: UACC-62 melanoma
LOX IMVI melanoma = test system: LOX IMVI melanoma
NCI-H460 lung = test system: NCI-H460 lung
UACC-257 melanoma = test system: UACC-257 melanoma
786-0 renal = test system: 786-0 renal
RXF 393 renal = test system: RXF 393 renal
K-562 leukemia = test system: K-562 leukemia
NCI-H226 lung = test system: NCI-H226 lung
CCRF-CEM leukemia = test system: CCRF-CEM leukemia
OVCAR-4 ovarian = test system: OVCAR-4 ovarian
TK-10 renal = test system: TK-10 renal
HL-60(TB) leukemia = test system: HL-60(TB) leukemia
DLD-1 colon = test system: DLD-1 colon

Molecule `COc1ccc(C2C(C#N)=C(O)NC(O)=C2C#N)cc1OC` has a TGI (CAKI-1 renal) greater than 100 µM, a TGI (SF-539 CNS) greater than 100 µM and a TGI (SK-MEL-28 melanoma) greater than 100 µM. The TGI (SW-620 colon) was greater than 100 µM, the TGI (HOP-92 NSCLC) was greater than 100 µM and the TGI (SK-MEL-2 melanoma) was greater than 100 µM. It also gave a TGI (SR leukemia) greater than 100 µM, a TGI (OVCAR-5 ovarian) greater than 100 µM and a TGI (IGROV1 ovarian) greater than 100 µM. The TGI (SK-OV-3 ovarian) was greater than 100 µM, the TGI (DMS 273 small cell lung) was greater than 100 µM and the TGI (RPMI-8226 leukemia) was greater than 100 µM. The TGI (SF-268 CNS) was greater than 100 µM, the TGI (KM12 colon) was greater than 100 µM and the TGI (OVCAR-8 ovarian) was greater than 100 µM. The TGI (M14 melanoma) was greater than 100 µM, the TGI (NCI-H522 lung) was greater than 100 µM and the TGI (A498 renal) was greater than 100 µM. For the same molecule, the TGI (M19-MEL melanoma) was greater than 100 µM, the TGI (MOLT-4 leukemia) was greater than 100 µM and the TGI (KM20L2 colon) was greater than 100 µM. The TGI (MALME-3M melanoma) was greater than 100 µM, the TGI (SN12C renal) was greater than 100 µM and the TGI (HCT-116 colon) was greater than 100 µM. For the same molecule, the TGI (LXFL 529 NSCLC) was greater than 100 µM, the TGI (RXF-631 renal) was greater than 100 µM and the TGI (HT29 colon) was greater than 100 µM. It also gave a TGI (U251 CNS) greater than 100 µM, a TGI (XF 498 CNS) greater than 100 µM and a TGI (OVCAR-3 ovarian) greater than 100 µM. It also gave a TGI (A549 NSCLC) greater than 100 µM, a TGI (EKVX NSCLC) greater than 100 µM and a TGI (HCT-15 colon) greater than 100 µM. It also gave a TGI (SF-295 CNS) greater than 100 µM, a TGI (SNB-75 CNS) greater than 100 µM and a TGI (SK-MEL-5 melanoma) greater than 100 µM. The TGI (SNB-78 CNS) was greater than 100 µM, the TGI (HOP-18 NSCLC) was greater than 100 µM and the TGI (SNB-19 CNS) was greater than 100 µM. The TGI (HOP-62 NSCLC) was greater than 100 µM, the TGI (COLO 205 colon) was greater than 100 µM and the TGI (UO-31 renal) was greater than 100 µM. It also gave a TGI (HCC-2998 colon) greater than 100 µM.
With `CN(C)CCn1cnc2sc3ccccc3c21` the TGI (CAKI-1 renal) was greater than 100 µM, the TGI (SF-539 CNS) was greater than 100 µM and the TGI (SK-MEL-28 melanoma) was greater than 100 µM. For the same molecule, the TGI (SW-620 colon) was greater than 100 µM, the TGI (SK-MEL-2 melanoma) was greater than 100 µM and the TGI (DMS 114 small cell lung) was greater than 100 µM. For the same molecule, the TGI (OVCAR-5 ovarian) was greater than 100 µM, the TGI (IGROV1 ovarian) was greater than 100 µM and the TGI (SK-OV-3 ovarian) was greater than 100 µM. The TGI (ACHN renal) was greater than 100 µM, the TGI (NCI-H23 lung) was greater than 100 µM and the TGI (UACC-62 melanoma) was greater than 100 µM. For the same molecule, the TGI (LOX IMVI melanoma) was greater than 100 µM, the TGI (NCI-H460 lung) was greater than 100 µM and the TGI (SF-268 CNS) was greater than 100 µM. For the same molecule, the TGI (UACC-257 melanoma) was greater than 100 µM, the TGI (KM12 colon) was greater than 100 µM and the TGI (786-0 renal) was greater than 100 µM. For the same molecule, the TGI (OVCAR-8 ovarian) was greater than 100 µM, the TGI (M14 melanoma) was greater than 100 µM and the TGI (RXF 393 renal) was greater than 100 µM. It also gave a TGI (NCI-H522 lung) greater than 100 µM, a TGI (A498 renal) greater than 100 µM and a TGI (M19-MEL melanoma) greater than 100 µM. The TGI (MOLT-4 leukemia) was greater than 100 µM, the TGI (KM20L2 colon) was greater than 100 µM and the TGI (MALME-3M melanoma) was greater than 100 µM. For the same molecule, the TGI (SN12C renal) was greater than 100 µM, the TGI (K-562 leukemia) was greater than 100 µM and the TGI (HCT-116 colon) was greater than 100 µM. The TGI (LXFL 529 NSCLC) was greater than 100 µM, the TGI (RXF-631 renal) was greater than 100 µM and the TGI (HT29 colon) was greater than 100 µM. It also gave a TGI (U251 CNS) greater than 100 µM, a TGI (XF 498 CNS) greater than 100 µM and a TGI (OVCAR-3 ovarian) greater than 100 µM. It also gave a TGI (NCI-H226 lung) greater than 100 µM, a TGI (A549 NSCLC) greater than 100 µM and a TGI (CCRF-CEM leukemia) greater than 100 µM. The TGI (OVCAR-4 ovarian) was greater than 100 µM, the TGI (EKVX NSCLC) was greater than 100 µM and the TGI (TK-10 renal) was greater than 100 µM. The TGI (HCT-15 colon) was greater than 100 µM, the TGI (SF-295 CNS) was greater than 100 µM and the TGI (SNB-75 CNS) was 86.6 µM. It also gave a TGI (SK-MEL-5 melanoma) greater than 100 µM, a TGI (SNB-78 CNS) greater than 100 µM and a TGI (HOP-18 NSCLC) greater than 100 µM. For the same molecule, the TGI (SNB-19 CNS) was greater than 100 µM, the TGI (HOP-62 NSCLC) was greater than 100 µM and the TGI (COLO 205 colon) was greater than 100 µM. For the same molecule, the TGI (HCC-2998 colon) was greater than 100 µM.
For `COc1ccc2c(c1)CCc1c(C(C)=O)c3ccccc3n1C2`, the TGI (CAKI-1 renal) was greater than 100 µM, the TGI (SF-539 CNS) was 62.6 µM and the TGI (SK-MEL-28 melanoma) was greater than 100 µM. For the same molecule, the TGI (SW-620 colon) was greater than 100 µM, the TGI (HOP-92 NSCLC) was greater than 100 µM and the TGI (SR leukemia) was greater than 100 µM. It also gave a TGI (DMS 114 small cell lung) greater than 100 µM, a TGI (OVCAR-5 ovarian) greater than 100 µM and a TGI (IGROV1 ovarian) greater than 100 µM. The TGI (ACHN renal) was greater than 100 µM, the TGI (NCI-H23 lung) was greater than 100 µM and the TGI (UACC-62 melanoma) was greater than 100 µM. The TGI (LOX IMVI melanoma) was greater than 100 µM, the TGI (DMS 273 small cell lung) was greater than 100 µM and the TGI (NCI-H460 lung) was greater than 100 µM. The TGI (SF-268 CNS) was greater than 100 µM, the TGI (UACC-257 melanoma) was greater than 100 µM and the TGI (KM12 colon) was greater than 100 µM. For the same molecule, the TGI (786-0 renal) was greater than 100 µM, the TGI (OVCAR-8 ovarian) was greater than 100 µM and the TGI (M14 melanoma) was greater than 100 µM. For the same molecule, the TGI (RXF 393 renal) was 75.4 µM, the TGI (NCI-H522 lung) was greater than 100 µM and the TGI (HL-60(TB) leukemia) was greater than 100 µM. The TGI (M19-MEL melanoma) was greater than 100 µM, the TGI (MOLT-4 leukemia) was greater than 100 µM and the TGI (MALME-3M melanoma) was 74.4 µM. It also gave a TGI (SN12C renal) greater than 100 µM, a TGI (K-562 leukemia) greater than 100 µM and a TGI (HCT-116 colon) greater than 100 µM. For the same molecule, the TGI (LXFL 529 NSCLC) was greater than 100 µM, the TGI (RXF-631 renal) was greater than 100 µM and the TGI (HT29 colon) was greater than 100 µM. For the same molecule, the TGI (U251 CNS) was greater than 100 µM, the TGI (XF 498 CNS) was 51.2 µM and the TGI (OVCAR-3 ovarian) was greater than 100 µM. It also gave a TGI (A549 NSCLC) greater than 100 µM, a TGI (CCRF-CEM leukemia) greater than 100 µM and a TGI (DLD-1 colon) greater than 100 µM. The TGI (OVCAR-4 ovarian) was greater than 100 µM, the TGI (TK-10 renal) was greater than 100 µM and the TGI (SF-295 CNS) was greater than 100 µM. It also gave a TGI (SNB-75 CNS) of 85.1 µM, a TGI (SK-MEL-5 melanoma) greater than 100 µM and a TGI (SNB-78 CNS) greater than 100 µM. For the same molecule, the TGI (HOP-18 NSCLC) was greater than 100 µM, the TGI (SNB-19 CNS) was greater than 100 µM and the TGI (HOP-62 NSCLC) was 91.3 µM. It also gave a TGI (COLO 205 colon) greater than 100 µM, a TGI (UO-31 renal) greater than 100 µM and a TGI (HCC-2998 colon) greater than 100 µM.
